From PubChem BioAssay AID312 (DTP/NCI, 2004)
Where “and” joins values, the source holds several entries; their conditions need not be identical. Equal values may be shown once. Inconclusive results and toxic doses are left out.

Test system: BDF1 mice, C1498 leukemia ip, median survival T/C
Experiment: NCI In Vivo Anticancer Drug Screen. Data for tumor model C1498 Myeloid Leukemia (intraperitoneal) in B6D2F1 (BDF1) mice
Conditions: endpoint: median survival time, higher = longer survival
Procedure: The antitumor activity of compounds was measured in mice bearing transplantable tumors. Survival or tumor size were measured and the results are expressed as the measurement made in the treated group (T) divided by the measurement made in the vehicle treated control group (C). The tumor model used in this assay is C1498 Myeloid Leukemia (intraperitoneal) in B6D2F1 (BDF1) mice

[1] = dose: 8.0 mg/kg/injection, schedule: Q01DX010 (ip), vehicle: saline
[2] = dose: 16.0 mg/kg/injection, schedule: Q01DX010 (ip), vehicle: saline
[3] = dose: 32.0 mg/kg/injection, schedule: Q01DX010 (ip), vehicle: saline
[4] = dose: 31.3 mg/kg/injection, schedule: Q01DX010 (ip), vehicle: saline
[5] = dose: 62.5 mg/kg/injection, schedule: Q01DX010 (ip), vehicle: saline
[6] = dose: 125.0 mg/kg/injection, schedule: Q01DX010 (ip), vehicle: saline
[7] = dose: 250.0 mg/kg/injection, schedule: Q01DX010 (ip), vehicle: saline
[8] = dose: 10.0 mg/kg/injection, schedule: Q01DX010 (ip), vehicle: saline
[9] = dose: 20.0 mg/kg/injection, schedule: Q01DX010 (ip), vehicle: saline
[10] = dose: 40.0 mg/kg/injection, schedule: Q01DX010 (ip), vehicle: saline
[11] = dose: 15.6 mg/kg/injection, schedule: Q01DX010 (ip), vehicle: saline

COc1cc(C(=O)O)c2c(c1C)OC(=O)c1c(C)cc(O)c(C=O)c1O2
T/C [1]: 100 % of control
T/C [2]: 108 % of control
T/C [3]: 95 % of control

O=P1(N(CCCl)CCCl)NCCCO1 (stereo unspecified)
T/C (dose: 200.0 mg/kg/injection, schedule: Q01DX001 (ip), vehicle: saline): 162 % of control and 207 % of control
T/C (dose: 300.0 mg/kg/injection, schedule: Q01DX001 (ip), vehicle: saline): 171 % of control and 241 % of control

CCN(CCNc1ccc(C)c2sc3cc(Cl)ccc3c(=O)c12)CC(C)O (stereo unspecified)
T/C [4]: 86 % of control
T/C [5]: 104 % of control and 90 % of control
T/C [6]: 95 % of control and 86 % of control
T/C [7]: 86 % of control

N=C(N)c1ccc(Nc2ccc(C(=N)N)cc2)cc1
T/C (dose: 1.5 mg/kg/injection, schedule: Q01DX010 (ip), vehicle: saline): 100 % of control
T/C (dose: 3.0 mg/kg/injection, schedule: Q01DX010 (ip), vehicle: saline): 90 % of control
T/C (dose: 6.0 mg/kg/injection, schedule: Q01DX010 (ip), vehicle: saline): 86 % of control
T/C (dose: 12.0 mg/kg/injection, schedule: Q01DX010 (ip), vehicle: saline): 86 % of control

CCCCCCCCCCCCCCCC(=O)OCC1OC(n2ccc(N)nc2=O)C(O)C1O (stereo unspecified)
T/C (dose: 125.0 mg/kg/injection, schedule: Q01DX001 (ip), vehicle: saline with Tween-80): 153 % of control and 155 % of control
T/C (dose: 150.0 mg/kg/injection, schedule: Q01DX001 (ip), vehicle: saline with Tween-80): 151 % of control and 194 % of control

Cn1c(N)nc2nc[nH]c2c1=S
T/C [8]: 100 % of control
T/C [9]: 104 % of control
T/C [10]: 109 % of control
T/C (dose: 80.0 mg/kg/injection, schedule: Q01DX010 (ip), vehicle: saline): 109 % of control

Nc1c(Br)cc2c(c1Br)Cc1cc([N+](=O)[O-])ccc1-2
T/C [4]: 91 % of control
T/C [5]: 91 % of control and 100 % of control
T/C [6]: 91 % of control
T/C [7]: 91 % of control and 95 % of control
T/C (dose: 500.0 mg/kg/injection, schedule: Q01DX010 (ip), vehicle: saline): 95 % of control

C[C@]12C=CC(=O)C=C1CC[C@@H]1[C@@H]2[C@@H](O)C[C@@]2(C)[C@H]1CC[C@]2(O)C(=O)CO
T/C (dose: 12.5 mg/kg/injection, schedule: Q01DX010 (sc), vehicle: steriod suspending solution): 92 % of control
T/C (dose: 25.0 mg/kg/injection, schedule: Q01DX010 (sc), vehicle: steriod suspending solution): 88 % of control
T/C (dose: 50.0 mg/kg/injection, schedule: Q01DX010 (sc), vehicle: steriod suspending solution): 92 % of control
T/C (dose: 100.0 mg/kg/injection, schedule: Q01DX010 (sc), vehicle: steriod suspending solution): 92 % of control

O=C(Nc1ccc(C2=NCCN2)cc1)c1cccc(C(=O)Nc2ccc(C3=NCCN3)cc2)c1
T/C [1]: 92 % of control and 96 % of control
T/C [2]: 96 % of control and 103 % of control
T/C [3]: 115 % of control and 117 % of control

CS(=O)(=O)OCCCl
T/C (dose: 18.8 mg/kg/injection, schedule: Q01DX010 (ip), vehicle: saline): 90 % of control
T/C (dose: 37.5 mg/kg/injection, schedule: Q01DX010 (ip), vehicle: saline): 104 % of control
T/C (dose: 75.0 mg/kg/injection, schedule: Q01DX010 (ip), vehicle: saline): 90 % of control

COc1ccc2c(c1OC)C(=O)O[C@@H]2[C@H]1c2c(cc3c(c2OC)OCO3)CCN1C
T/C [11]: 100 % of control
T/C [4]: 95 % of control and 100 % of control (2×)
T/C [5]: 87 % of control and 90 % of control (2×)
T/C [6]: 86 % of control and 87 % of control and 90 % of control
T/C [7]: 90 % of control

CCn1cnc2c(=S)nc[nH]c21
T/C [11]: 105 % of control
T/C [4]: 100 % of control
T/C [5]: 105 % of control
T/C [6]: 105 % of control

COC(=O)C[C@](O)(CCCC(C)(C)O)C(=O)O[C@@H]1C(OC)=C[C@]23CCCN2CCc2cc4c(cc2[C@H]13)OCO4
T/C (dose: 1.5 mg/kg/injection, schedule: Q01DX009 (ip), vehicle: acid diluted with saline): 96 % of control
T/C (dose: 2.0 mg/kg/injection, schedule: Q01DX009 (ip), vehicle: acid diluted with saline): 91 % of control

CN(C)c1ccc(/C=C/c2ccnc3ccccc23)cc1
T/C (dose: 5.0 mg/kg/injection, schedule: Q01DX010 (ip), vehicle: saline): 100 % of control
T/C [8]: 100 % of control and 104 % of control
T/C [9]: 95 % of control and 100 % of control
T/C [10]: 95 % of control and 109 % of control

C1CN1c1nc(N2CC2)nc(N2CC2)n1
T/C (dose: 0.25 mg/kg/injection, schedule: Q01DX010 (ip), vehicle: saline): 110 % of control
T/C (dose: 0.5 mg/kg/injection, schedule: Q01DX010 (ip), vehicle: saline): 110 % of control
